Drawing on the METLIN SMRT retention time set (Domingo-Almenara et al. 2019), this text covers RP-LC retention time for 79 compounds.

SMILES strings stand for the structures.

The data set is described as follows: gradient 5% acetonitrile 3 min, to 50% in 2 min, to 85% in 15 min, held 3 min, 100 µL/min. The conditions noted are these: column: Zorbax Extend-C18 2.1 x 50 mm; eluents: water / acetonitrile, 0.1% formic acid. The gist of the method: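 Pure standards were analyzed in mixtures of ~100 molecules using HPLC coupled to a quadrupole time-of-flight mass spectrometer, in both positive and negative ionization mode. Separation used a Zorbax Extend-C18 column (2.1 × 50 mm, 1.8 μm) at 100 μL/min, with water and acetonitrile each containing 0.1% formic acid. Dead and dwell volumes were 40 μL and 900 μL, and data were collected over 3 months. Retention time was read from computationally picked adduct peaks, each inspected manually.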
`O=C(COc1ccc(Cl)cc1)N1CCN(c2cc(-c3ccccc3)[nH]n2)CC1` yielded an RP-LC retention time of 814 s. In turn, `COc1cccc(C(=O)N2CCc3nc(CNC(=O)C4CCC4)n(C)c3C2)c1` displayed an RP-LC retention time of 555 s. `CC(C)(C)c1ccc(S(=O)(=O)N2CCC(C(=O)NCc3cscn3)CC2)cc1` yielded an RP-LC retention time of 869 s. As for `CC1(C)CC(=O)c2cn(-c3ccc(F)cc3)c(=O)c(C(=O)Nc3ccc4c(c3)OCCO4)c2C1`, the RP-LC retention time worked out at 1000 s.

In turn, `O=C(OCC(O)COC(=O)c1cccnc1)c1cccnc1` yielded an RP-LC retention time of 624 s.

The compound `O=c1c(=O)n(-c2ccccc2)ccn1Cc1nc(-c2cccc(F)c2)no1` displayed an RP-LC retention time of 805 s. Consider `CC1(C(=O)NCc2ccccc2)CN(S(C)(=O)=O)CC(=O)N1Cc1ccccc1Cl` (centres undefined), for which the RP-LC retention time came to 778 s. `COc1cccc(CNc2ncccc2-c2nnc(-c3ccccc3)o2)c1`: the RP-LC retention time stood at 1170 s. For `CCCn1cc(-c2ccncc2)cc1C(=O)Nc1ccc2c(c1)OCCO2`, the RP-LC retention time came out at 679 s. Compound `CCN1C(=O)C(C)(C(=O)NCc2ccc(C)cc2)Oc2cccnc21` (centres undefined) gave an RP-LC retention time of 912 s.

With `Cc1ccc(C(=O)N2CCN(c3ccc(-c4noc(C5CC5)n4)cc3)CC2)s1`, the RP-LC retention time was 1010 s. For `O=C(Cc1nnc(-c2cnccn2)o1)Nc1cccc(C(F)(F)F)c1`, the RP-LC retention time came out at 780 s. `Cc1cc(NC(=O)C2=COCCO2)no1` registered an RP-LC retention time of 600 s. For the compound `O=C(CCCc1nnc2c(=O)n(-c3cccc(F)c3)ccn12)NCCc1c[nH]c2ccccc12`, the RP-LC retention time stood at 707 s. In the case of `Cc1cccc(CC(=O)N2C[C@@H]3C[C@H]2C[C@@H]3NS(=O)(=O)c2cccs2)c1`, the RP-LC retention time was found to be 815 s. With `COc1ccc(C2Cn3cnc(C(=O)N4CCC(C(=O)NCC5CCCCC5)CC4)c3CO2)cc1` (centres undefined), the RP-LC retention time was found to be 821 s. Then `CCSc1nc2ccc(NS(=O)(=O)c3ccccc3F)cc2s1`, with 964 s; and `NC(=O)C1CCN(C(c2cccc(Cl)c2)c2sc3nc(-c4ccco4)nn3c2O)CC1` (centres undefined), with 717 s. Compound `O=C(c1ccc2c(=O)n3c(nc2c1)CCCC3)N1CCC(Cc2ccccc2)CC1` had an RP-LC retention time of 878 s. On to `O=C(CCN1C(=O)c2cccc3cccc(c23)C1=O)NC1CCS(=O)(=O)C1` (centres undefined), for which the RP-LC retention time is 641 s. Under `C[C@H]1CN(C(=O)c2ccccc2F)C[C@@H]1c1nc(-c2ccccc2)no1` stands 1020 s. Under `CCc1c(C2CCN(C(=O)c3cc4ccccc4[nH]3)CC2)noc1N` stands 774 s.

For the compound `COc1cccc(-c2noc(-c3nn(-c4ccc(F)c(F)c4)ccc3=O)n2)c1OC`, the RP-LC retention time amounted to 796 s. Take `CCC(C(=O)NCCc1c(C)noc1C)n1c2ccccc2c2cnn(C)c(=O)c21` (centres undefined): the RP-LC retention time amounted to 739 s. Then `CCOC(=O)O[C@]1(C(=O)OCCl)CC[C@H]2[C@@H]3CCC4=CC(=O)C=C[C@]4(C)[C@H]3[C@@H](O)C[C@@]21C`, with 1150 s. In the case of `Cc1ccc(CNC(=O)C2(C)CCCN(C(=O)Nc3cccc(C)c3C)C2)cc1` (centres undefined), the RP-LC retention time was determined as 978 s. In turn, `Clc1ccc(-c2nc(-c3ccc(-n4ccnc4)nc3)no2)cc1` had an RP-LC retention time of 797 s.

Compound `CNC(=O)[C@@H]1C[C@H](Oc2ccccc2)CN1C(=O)c1n[nH]c2ccccc12` displayed an RP-LC retention time of 706 s. Under `Cc1nc(-c2ccc3c(c2)CCN3C(=O)c2n[nH]c3ccccc23)cs1` stands 959 s; under `CCOc1ccc(CC(=O)NCCc2nc3cccnc3n2C)cc1`, 733 s. The compound `Cc1ccn2cc(-c3ccc(NC(=O)c4ccc(Cl)cc4Cl)cc3)nc2n1` showed an RP-LC retention time of 695 s. Under `CCCOc1ccc(CNC(=O)c2nc(N3CCSCC3)c3cn(C)nc3n2)cc1` stands 798 s; under `COc1cccc(CNC(=O)Cn2ccnc2-c2ccnc(N3CCCC3)c2)c1`, 577 s. As to `CCCn1c(CCc2ccccc2NS(=O)(=O)c2cnn(CC)c2)nc2ccccc21`, the RP-LC retention time worked out at 680 s. As for `Cc1nn(-c2ccccc2)c2c1N(CCCC(=O)NC1CC1)C(=O)CS2`, the RP-LC retention time was 780 s. Then `Cc1ccc(-c2nc(-c3ccc(-c4noc(CNC(=O)c5ccco5)n4)cc3)cs2)s1`, with 1130 s; and `Cc1cc(C)n(-c2c(C)c(C)nc3c(-c4ccccc4)cnn23)n1`, with 947 s.

In turn, `CNc1nc(Nc2ccc(F)cc2C)nc2ccccc12` came in with an RP-LC retention time of 678 s. Turning to `COC(=O)c1c(NC(=O)CSc2nnnn2-c2ccccc2OC)sc2c1CCC2`, the RP-LC retention time was determined as 1060 s.

For the compound `COc1ccc(-c2noc(Cc3nnc(-c4cc(C)cc(C)c4)o3)n2)cc1OC`, the RP-LC retention time stood at 997 s. `Cc1cccc(CNC(=O)c2cccc(C3CCCN(C(=O)NC(C)C)C3)c2)c1` (centres undefined) gave an RP-LC retention time of 894 s. In turn, `COCCCNC(=O)C1CCN(c2ncnc3c2oc2ccccc23)CC1` returned an RP-LC retention time of 613 s. Then `CCC(CC)NC(=O)C1CCN(c2nc3ccc(-c4cncnc4)nc3s2)CC1`, with 810 s. In turn, `COc1ccc(Cl)cc1NC(=O)NCC(=O)N1CCc2ccccc21` displayed an RP-LC retention time of 930 s. In turn, `Cc1ccc(C)c(N2CCN(C(=O)c3cn(-c4ccc(NC(=O)C5CC5)cn4)cn3)CC2)c1` yielded an RP-LC retention time of 900 s. Then `CCOc1ccc(NC(=O)Cc2csc3nc(-c4ccccc4)cn23)cc1`, with 815 s; and `O=C(NCc1nc2ccccc2n1CCCCOc1ccccc1Cl)c1ccco1`, with 660 s. `Cn1c(=O)n([C@H]2CCN(C(=O)Nc3ccc4c(c3)OCCO4)C2)c2ncccc21`: the RP-LC retention time was determined as 686 s. `CCC(=O)N1CCc2c(C(=O)NC3CCCCCC3)cccc21` returned an RP-LC retention time of 887 s. `Cc1nc(NCCNC(=O)c2ccc(Br)o2)cc(-n2cccn2)n1` displayed an RP-LC retention time of 673 s. `CN(C)CCn1nnc2cc(-c3noc(-c4ccc(C#N)cc4)n3)ccc21` registered an RP-LC retention time of 643 s.

On to `Cc1cnc(-c2ccccc2)n1C1CCCN(S(=O)(=O)c2ccc3c(c2)OCCO3)C1` (centres undefined), for which the RP-LC retention time came to 712 s. Then `O=C(O)c1nnn(-c2cccc(Br)c2)c1C(F)(F)F`, with 836 s; and `Cc1ccccc1CC(=O)N1CCCC1c1c(C)noc1C` (centres undefined), with 797 s; and `COCCNC(=O)C1CCN(c2nc3ccc(-c4cccc(OC)c4)nc3s2)CC1`, with 804 s. Compound `Cc1cccc(OCCc2noc(C3CCCN3)n2)c1` (centres undefined) returned an RP-LC retention time of 645 s. In turn, `CCN1C(=O)c2cccnc2Sc2cc(CNC(=O)c3sc(C)nc3C)ccc21` had an RP-LC retention time of 681 s. Turning to `CCN1C(=O)c2cc(C(=O)Nc3ccccc3C)nn2CC1(C)C(=O)NC1CCCC1` (centres undefined), the RP-LC retention time turned out to be 807 s. For `CCN1C(=O)COc2cc(-c3noc(C(=O)NC4CCCCC4)n3)ccc21`, the RP-LC retention time worked out at 996 s.

In turn, `CC(C)C(=O)Nc1ccc(-n2cnc(C(=O)N3CCN(C4CCCCC4)CC3)c2)nc1` displayed an RP-LC retention time of 601 s.

In turn, `O=C(NC1(c2nc(-c3ccncc3)no2)CCCCC1)C1CCCC1` had an RP-LC retention time of 861 s. For the compound `Cc1nn(C)c2nc(OCC(=O)Nc3ccc(Br)cc3F)cc(C(F)(F)F)c12`, the RP-LC retention time is 1080 s.

`Clc1cccc(-c2cc3c(N4CCN(Cc5ccc6c(c5)OCO6)CC4)nccn3n2)c1`: the RP-LC retention time amounted to 820 s. For the compound `CCN1C(=O)c2cccnc2Sc2cc(CNC(=O)c3ccoc3)ccc21`, the RP-LC retention time is 702 s. Under `Cc1nc2c(c(=O)n1CC(=O)NCc1ccccc1Br)CCN(Cc1ccccc1)C2` stands 650 s; under `COc1cccc(CNC(=O)CCC2CCN(c3cc(NC4CC4)ncn3)CC2)c1`, 575 s; under `COc1cc(-c2nnc(COc3ccc(Cl)cc3Cl)o2)cc(OC)c1OC`, 994 s.

Compound `Cc1sc(-c2cc(C(F)(F)F)on2)cc1S(=O)(=O)N1CCN(c2ccccn2)CC1` had an RP-LC retention time of 891 s. `COc1ccc(CNC(=O)c2nnc(-c3ccc(S(=O)(=O)N4CCOCC4)cc3)o2)cc1` registered an RP-LC retention time of 829 s. Then `CCc1nc(-c2csc(S(=O)(=O)N3CCCC(C(=O)N4CCc5ccccc54)C3)c2)no1` (centres undefined), with 1110 s; and `CC(C)n1c(=O)sc2cc(S(=O)(=O)N3CCC(C(=O)N4CCc5ccccc54)CC3)ccc21`, with 1020 s; and `Cc1ccc(Oc2nccnc2SCC(=O)Nc2cc(C)cc(C)c2)cc1`, with 1200 s.

`Cc1noc(-c2nn(C)c3c2CN(C(=O)Nc2ccc(F)cc2)CC3)n1` showed an RP-LC retention time of 723 s. In turn, `CC1CCc2ccccc2N1C(=O)c1cccs1` (centres undefined) registered an RP-LC retention time of 913 s. The compound `c1ccc(-c2nc(CC3CCNC3)no2)cc1` (centres undefined) showed an RP-LC retention time of 608 s.

In turn, `Cc1noc(C)c1CNC(=O)C(C)Oc1ccc(Cl)cc1` (centres undefined) displayed an RP-LC retention time of 811 s. On to `Cc1ccc2c(Cl)c(C(=O)N3CCN(c4ccccn4)CC3)sc2c1`, for which the RP-LC retention time was found to be 726 s. Under `O=C(COc1cc(O)c2c(=O)c3ccccc3oc2c1)OCc1ccccc1` stands 1220 s; under `CN1CCN(c2ccc(-c3nc(-c4ccccc4)no3)cn2)CC1`, 664 s.
